The numbers were not newly measured in patent US20080280370A1, “METHODS AND COMPOSITIONS FOR DETECTING […] METABOLITES THEREOF” (priority 2007, published 2008), which cites them from elsewhere.

Data set [1] concerns the target T1, EPSPS (enolpyruvylshikimate-3-phosphate synthase) enzyme (Arabidopsis thaliana, UniProt P05466).
T1 sequence (P05466 77-520): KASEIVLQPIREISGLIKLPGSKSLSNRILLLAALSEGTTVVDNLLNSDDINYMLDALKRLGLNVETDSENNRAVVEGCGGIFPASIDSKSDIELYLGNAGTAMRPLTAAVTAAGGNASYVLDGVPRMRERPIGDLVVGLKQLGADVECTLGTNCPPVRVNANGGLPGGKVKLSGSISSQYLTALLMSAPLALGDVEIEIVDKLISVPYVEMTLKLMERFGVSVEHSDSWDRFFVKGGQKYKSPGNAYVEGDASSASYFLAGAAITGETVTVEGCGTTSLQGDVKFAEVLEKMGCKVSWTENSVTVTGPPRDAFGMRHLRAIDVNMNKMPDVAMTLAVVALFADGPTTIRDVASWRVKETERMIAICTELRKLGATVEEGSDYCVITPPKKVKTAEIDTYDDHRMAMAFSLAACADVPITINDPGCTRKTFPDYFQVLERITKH
As to conditions: enzyme required for biosynthesis of aromatic amino acids in plants.

The test system of a further data set is plants. The note with it: metabolite formed by glyat acetylation; Castle et al. (2004).

Take `O=C(O)CNCP(=O)(O)O` [glyphosate, N-(phosphonomethyl)glycine]: the “Effect on EPSPS enzyme” value in data set [1] is listed as “inhibits”.

On to `CC(=O)N(CC(=O)O)CP(=O)(O)O` [N-acetylglyphosate, N-Acetyl-N-(phosphonomethyl)glycine], for which the Phytotoxicity result in the data set with plants was “non-phytotoxic”.
